Key:
[1] = test system: MMP-2; experiment: Substrate phage display with NGS: relative probability (RP) of P3-P1' tetramer clusters; assay type: biochemical, human; conditions: for MMP2 relative probability (RP): MMP2 tetramers from unique substrates, unrounded values; for relative probability (RP) of matching tetramer: P3-P1' tetramer matching the MS detected MMP2 cleavage sequence, RP_above_4.5
[2] = test system: MMP-9; experiment: as above; assay type: biochemical, human; conditions: for corresponding MMP9 relative probability (RP): MMP2 tetramers from unique substrates, RP of same tetramer for MMP9
[3] = RP according to MMP2, P3-P1' tetramer of unique physiologic MMP2 substrates from MEROPS
[4] = RP of the P3-P1' tetramer, MMP2 substrate phage display/NGS, tetramers of physiologic MEROPS substrates common to MMP2 and MMP9
[5] = RP according to MMP9, P3-P1' tetramer of unique physiologic MMP9 substrates from MEROPS
[6] = RP of the P3-P1' tetramer, MMP9 substrate phage display/NGS, tetramers of physiologic MEROPS substrates common to MMP2 and MMP9
[7] = RP of the P3-P1' tetramer cluster contained in the hexamer, 200 nM MMP-2, 2 h, 37°C, two rounds of selection
[8] = MMP9, RP of the P3-P1' tetramer contained in the hexamer substrate (substrate phage display, NGS)
[9] = normalized RP of matching tetramer, unique part of MMP2 selectome
[10] = MMP2, RP of matching P3-P1' tetramer, common set of MMP2-9 selectome, RP above KL threshold
[11] = RP of matching tetramer, common MMP2-9 selectome
[12] = MMP9, RP of matching P3-P1' tetramer, common set of MMP2-9 selectome
[13] = MMP9, RP of the P3-P1' tetramer matching the MS detected cleavage, RP above 4.7, substrate phage display with NGS
[14] = RP of matching tetramer, common MMP2-9 selectome, RP above KL threshold

Question: What does the source list for QRGI?
Answer: avg_RP ([1]; MMP2 - no binning, average relative probability of the tetramer, redundant tetramers averaged out): 7.4836; MMP2 relative probability (RP) [1]: 7.484; Relative probability (RP) rank [1, 3]: 6090; relative probability (RP) [1, 3]: 7.48; relative probability (RP) (acc.to MMP2) [1, 4]: 7.48; corresponding MMP9 relative probability (RP) [2]: 0.7406; Relative probability (RP) rank [2, 5]: 19198; relative probability (RP) [2, 5]: 0.74; relative probability (RP) (acc.to MMP9) [2, 6]: 0.74

Question: Which “relative probability (RP)” value [1, 7] does the source give for QSPINL here?
Answer: 31.6393

Question: What about the “relative probability (RP)” value [2, 8] of the same substance?
Answer: 44.8884

Question: How did the “MMP2 relative probability (RP)” value [1] turn out when RGEL was run?
Answer: 14.9989

Question: What about the “Relative probability (RP) rank” value [1, 3] of the same substance?
Answer: 3096

Question: And the “relative probability (RP)” value [1, 3]?
Answer: 15

Question: What about the “corresponding MMP9 relative probability (RP)” value [2] of the same substance?
Answer: 0.3681

Question: What does the source list for RMMREL?
Answer: relative probability (RP) [1, 7]: 19.1524; relative probability (RP) [2, 8]: 21.3182

Question: With RPEDLR as the substance, how does the “relative probability (RP)” value [1, 7] read?
Answer: 6.012

Question: And the “relative probability (RP)” value [2, 8]?
Answer: 13.0748

Question: Which “relative probability (RP)” value [1, 7] does the source give for RRPRPL here?
Answer: 34.3303

Question: And the “relative probability (RP)” value [2, 8]?
Answer: 46.7888

Question: Which results are given for SAAQPL?
Answer: relative probability (RP) [1, 7]: 14.4283; relative probability (RP) [2, 8]: 28.189

Question: With SAPL as the substance, how does the “relative probability (RP) of matching tetramer” value [1] read?
Answer: 18.44

Question: And the “relative probability (RP) (acc.to MMP2)” value ([1]; RP of matching tetramer, unique part of MMP2 selectome, RP above KL threshold)?
Answer: 18.44

Question: And the “normalized RP - MMP2” value [1, 9]?
Answer: 0.5049

Question: What about the “relative probability (RP) (acc.to MMP9)” value ([2]; RP of matching tetramer, unique part of MMP2 selectome) of the same substance?
Answer: 2.49

Question: And the “normalized RP - MMP9” value [2, 9]?
Answer: 0.04754

Question: Which results are given for SDEL?
Answer: relative probability (RP) (acc.to MMP2) [1, 4]: 0; relative probability (RP) (acc.to MMP9) [2, 6]: 0

Question: How did the “corresponding MMP2 relative probability (RP)” value ([1]; MMP9 tetramers from unique substrates, RP of same tetramer for MMP2) turn out when SFGL was run?
Answer: 10.7897

Question: And the “relative probability (RP) (acc.to MMP2)” value [1, 4]?
Answer: 0.19

Question: And the “MMP9 relative probability (RP)” value ([2]; MMP9 tetramers from unique substrates, unrounded values)?
Answer: 0.1902

Question: What about the “relative probability (RP) (acc.to MMP9)” value [2, 6] of the same substance?
Answer: 10.79

Question: What does the source list for SIPLPL?
Answer: relative probability (RP) [1, 7]: 35.0814; relative probability (RP) [2, 8]: 49.0268

Question: What does the source list for SKYL?
Answer: relative probability (RP) (acc.to MMP2) [1, 4]: 4.49; relative probability (RP) (acc.to MMP9) [2, 6]: 0.25

Question: What does the source list for SLPQ?
Answer: relative probability (RP) (acc.to MMP2) [1, 4]: 0.51; relative probability (RP) (acc.to MMP9) [2, 6]: 0.1

Question: For SPMAFS, which “relative probability (RP)” value [1, 7] is on record?
Answer: 29.2698

Question: And the “relative probability (RP)” value [2, 8]?
Answer: 45.5118

Question: With SPPAAI as the substance, how does the “relative probability (RP)” value [1, 7] read?
Answer: 32.0972

Question: And the “relative probability (RP)” value [2, 8]?
Answer: 46.1642

Question: Which “relative probability (RP)” value [1, 7] does the source give for SRPAEF here?
Answer: 19.4662

Question: And the “relative probability (RP)” value [2, 8]?
Answer: 11.7405

Question: How did the “relative probability (RP)” value [1, 7] turn out when TAPSSQ was run?
Answer: 25.0042

Question: What about the “relative probability (RP)” value [2, 8] of the same substance?
Answer: 27.1142

Question: How did the “relative probability (RP) (acc.to MMP2)” value [1, 4] turn out when TGLT was run?
Answer: 0.24

Question: What about the “Relative probability (RP) rank” value [2, 5] of the same substance?
Answer: 41284

Question: And the “relative probability (RP)” value [2, 5]?
Answer: 0.21

Question: What about the “relative probability (RP) (acc.to MMP9)” value [2, 6] of the same substance?
Answer: 0.21

Question: With TLGL as the substance, how does the “relative probability (RP) (acc.to MMP2)” value [1, 10] read?
Answer: 6

Question: What about the “relative probability (RP) of matching tetramer” value [1] of the same substance?
Answer: 6

Question: What about the “relative probability (RP) (acc.to MMP2)” value [1, 11] of the same substance?
Answer: 6

Question: And the “relative probability (RP) (acc.to MMP9)” value [2, 12]?
Answer: 9.79

Question: What about the “relative probability (RP)” value [2, 13] of the same substance?
Answer: 9.79

Question: And the “relative probability (RP) (acc.to MMP9)” value [2, 14]?
Answer: 9.79

Question: With TPAAMT as the substance, how does the “relative probability (RP)” value [1, 7] read?
Answer: 33.3115

Question: What about the “relative probability (RP)” value [2, 8] of the same substance?
Answer: 48.1518

Question: Which “relative probability (RP)” value [1, 7] does the source give for TQPKAM here?
Answer: 31.5595

Question: What about the “relative probability (RP)” value [2, 8] of the same substance?
Answer: 48.8005

Question: With TTPSPI as the substance, how does the “relative probability (RP)” value [1, 7] read?
Answer: 32.5241

Question: And the “relative probability (RP)” value [2, 8]?
Answer: 43.889

Question: How did the “MMP2 relative probability (RP)” value [1] turn out when VAEM was run?
Answer: 19.6601

Question: And the “Relative probability (RP) rank” value [1, 3]?
Answer: 1857

Question: And the “relative probability (RP)” value [1, 3]?
Answer: 19.66

Question: And the “relative probability (RP) (acc.to MMP2)” value [1, 4]?
Answer: 19.66

Question: What about the “corresponding MMP9 relative probability (RP)” value [2] of the same substance?
Answer: 2.985

Question: What about the “Relative probability (RP) rank” value [2, 5] of the same substance?
Answer: 7772

Question: What about the “relative probability (RP)” value [2, 5] of the same substance?
Answer: 2.99

Question: What about the “relative probability (RP) (acc.to MMP9)” value [2, 6] of the same substance?
Answer: 2.99

Question: VEPLKF was tested. Which “relative probability (RP)” value [1, 7] did it give?
Answer: 11.7082

Question: And the “relative probability (RP)” value [2, 8]?
Answer: 27.4837

Question: What does the source list for VGEY?
Answer: MMP2 relative probability (RP) [1]: 13.6759; Relative probability (RP) rank [1, 3]: 3547; relative probability (RP) [1, 3]: 13.68; corresponding MMP9 relative probability (RP) [2]: 0.1188

Question: VGGL was tested. Which “relative probability (RP) (acc.to MMP2)” value [1, 10] did it give?
Answer: 26.45

Question: And the “relative probability (RP) of matching tetramer” value [1]?
Answer: 26.45

Question: What about the “relative probability (RP) (acc.to MMP2)” value [1, 11] of the same substance?
Answer: 26.45

Question: What about the “relative probability (RP) (acc.to MMP9)” value [2, 12] of the same substance?
Answer: 9.44

Question: What about the “relative probability (RP)” value [2, 13] of the same substance?
Answer: 9.44

Question: And the “relative probability (RP) (acc.to MMP9)” value [2, 14]?
Answer: 9.44

Question: For VGKL, which “MMP2 relative probability (RP)” value [1] is on record?
Answer: 21.0562

Question: What about the “Relative probability (RP) rank” value [1, 3] of the same substance?
Answer: 1553

Question: What about the “relative probability (RP)” value [1, 3] of the same substance?
Answer: 21.06

Question: And the “corresponding MMP9 relative probability (RP)” value [2]?
Answer: 3.141

Question: And the “Relative probability (RP) rank” value [2, 5]?
Answer: 7569

Question: What about the “relative probability (RP)” value [2, 5] of the same substance?
Answer: 3.14

Question: How did the “relative probability (RP)” value [1, 7] turn out when VHPSAV was run?
Answer: 29.6865

Question: What about the “relative probability (RP)” value [2, 8] of the same substance?
Answer: 36.5372

Question: With VPQEWR as the substance, how does the “relative probability (RP)” value [1, 7] read?
Answer: 10.5981

Question: And the “relative probability (RP)” value [2, 8]?
Answer: 10.1914

Question: VQAM was tested. Which “relative probability (RP) (acc.to MMP2)” value [1, 11] did it give?
Answer: 21.36

Question: What about the “relative probability (RP)” value [2, 13] of the same substance?
Answer: 21.63

Question: What about the “relative probability (RP) (acc.to MMP9)” value [2, 14] of the same substance?
Answer: 21.63

Question: How did the “relative probability (RP) (acc.to MMP2)” value [1, 10] turn out when VRNI was run?
Answer: 25.21

Question: And the “relative probability (RP) of matching tetramer” value [1]?
Answer: 25.21

Question: And the “relative probability (RP) (acc.to MMP2)” value [1, 11]?
Answer: 25.21

Question: And the “relative probability (RP) (acc.to MMP9)” value [2, 12]?
Answer: 38.1

Question: And the “relative probability (RP)” value [2, 13]?
Answer: 38.1

Question: What about the “relative probability (RP) (acc.to MMP9)” value [2, 14] of the same substance?
Answer: 38.1

Question: For VSALSS, which “relative probability (RP)” value [1, 7] is on record?
Answer: 32.3417

Question: What about the “relative probability (RP)” value [2, 8] of the same substance?
Answer: 28.865

Question: What does the source list for VSHY?
Answer: relative probability (RP) (acc.to MMP2) [1, 4]: 21.33; relative probability (RP) (acc.to MMP9) [2, 6]: 15.49
